≈ marks a conversion by molar mass, not a printed value. Where two headings read alike, the source gives them in different places.
Columns and labels:
[1] = system: E. coli DH10B EC1083 TetB; experiment: MIC, E. coli DH10B recombinantly expressing tetracycline-resistance gene; conditions: arabinose-induced, ampicillin in medium
[2] = system: E. coli DH10B EC1082 TetA; experiment: as above; conditions: arabinose-induced, ampicillin in medium
[3] = system: E. coli DH10B EC1153 Tet(X); experiment: as above; conditions: arabinose-induced, ampicillin in medium
[4] = system: Legionella pneumophila, 70 isolates, serogroups 1-6; experiment: microbe, parasite or virus in culture; assay type: cell-based
[5] = system: S. maltophila; experiment: Broth microdilution MIC by tetracycline resistance phenotype (Table 10); assay type: cell-based; set-up: unit not given beside the values
[6] = system: Gram-negative respiratory pathogens; experiment: Broth microdilution MIC, respiratory pathogens; assay type: cell-based; conditions: generally
[7] = system: subset of Gram-negative and Gram-positive isolates; experiment: Minimum bactericidal concentration (MBC), CLSI M26-A, selected strains (Table 11)
[8] = system: S. aureus Smith; experiment: Mouse systemic infection (septicemia) model, CD-1 mice; conditions: Staphylococcus aureus, in Mus musculus, 48 h
[9] = system: S. pneumoniae strain SP514; experiment: Immunocompetent CD-1 murine lung infection model; assay type: in vivo; conditions: immunocompetent CD-1 mice, SP514, orally dosed 30 mg/kg at 5, 24 and 36 hours post-infection (FIG. 2)
Method: Compound 102 was tested in an immunocompetent CD-1 murine model of lung infection challenged with S. pneumoniae strain SP514.

[10] = Non-GLP monkey pharmacokinetics; assay type: in vivo; conditions: cynomolgus monkeys; for half-life: read-out: T½ (converted)
Method: As a result of promising pharmacokinetic data in Sprague Dawley rats,^a Compound 102 was evaluated in 3 non-naîve cynomolgus monkeys. […] Nine to ten plasma samples were drawn for each dosing route up to 24 hours into heparin-coated vacutainer tubes. Dose formulations were verified with a 5-point calibration curve. The plasma concentration of the compound was quantified by LC/MS/MS using an internal standard. Quality control (QC) samples (low, medium, high; minimum of 6 standards with LLOQ<3 ng/mL) and standard curves (in duplicate) were included in the bioanalytical run. WinNonLin was used to determine individual and mean PK parameters±standard deviation (F, Cmax, Tmax, T½, CL, Vss, AUC(0-t), AUC(0-∞), and MRT).

[11] = system: E. coli DH10B EC969 TetM; experiment: MIC, E. coli DH10B recombinantly expressing tetracycline-resistance gene; conditions: arabinose-induced, ampicillin in medium
[12] = system: evaluated pathogens by tetracycline phenotype; experiment: Broth microdilution MIC by tetracycline phenotype (Table 14)
[13] = cynomolgus monkey, plasma, IV 1 mg/kg, average of 3
[14] = cynomolgus monkey, plasma, PO 10 mg/kg, average of 3
[15] = Enterococcus faecium, E. faecium, TET NS, N=40
[16] = Enterococcus faecium, E. faecium, TET S, N=60
[17] = Streptococcus agalactiae, S. agalactiae, TET NS, N=39
[18] = Streptococcus agalactiae, S. agalactiae, TET S, N=11
[19] = Streptococcus pneumoniae, S. pneumoniae, TET NS, N=46
[20] = Streptococcus pneumoniae, S. pneumoniae, TET S, N=54
[21] = Streptococcus pyogenes, S. pyogenes, TET S, N=44

CN(C)[C@@H]1C(O)=C(C(N)=O)C(=O)[C@@]2(O)C(O)=C3C(=O)c4c(O)c5c(c(F)c4C[C@H]3C[C@@H]12)CN(C(C)(C)C)C5 [Compound 102]
MIC EC1083 TetB [1]: 1 | MIC EC1082 TetA [2]: 2 | MIC EC1153 Tet(X) [3]: 4 | MIC50 [4]: 2 µg/mL (≈ 3.78 µM) | MIC90 [4]: 8 µg/mL (≈ 15.1 µM) | MIC50 ([5]; TET NS, n=19): 1 | MIC90 ([5]; TET NS, n=19): 4 | MIC50 ([5]; TET S, n=10): 0.5 | MIC90 ([5]; TET S, n=10): 0.5 | MICs, fold higher than those of tigecycline [6]: 2-4 fold | evaluated isolates with MBC:MIC ratio >2 [7]: 89.3% | mode of action from MBC:MIC ratios [7]: bacteriostatic mode of action | MBC:MIC ([7]; Acinetobacter lwoffii isolate 2919857): 4 | MBC:MIC ([7]; Acinetobacter lwoffii isolate 2919860): 128 | MBC:MIC ([7]; Acinetobacter lwoffii isolate 2919873): 1 | MBC:MIC ([7]; Acinetobacter lwoffii isolate 2919875): 4 | MBC:MIC ([7]; Enierobacter cloacae isolate 2920082): 4 | MBC:MIC ([7]; Enterobacter aerogenes isolate 2919897): 2 | MBC:MIC ([7]; Enterobacter aerogenes isolate 2919900): 8 | MBC:MIC ([7]; Enterobacter aerogenes isolate 2919909): 4 | MBC:MIC ([7]; Enterobacter aerogenes isolate 2919913): 16 | MBC:MIC ([7]; Enterobacter cloacae isolate 2920072): 2 | MBC:MIC ([7]; Enterobacter cloacae isolate 2920119): 1 | MBC:MIC ([7]; Escherichia coli isolate 2921525): >16 | MBC:MIC ([7]; Escherichia coli isolate 2921576): 8 | MBC:MIC ([7]; Klebsiella oxytoca isolate 2919956): 8 | MBC:MIC ([7]; Klebsiella oxytoca isolate 2919964): 4 | MBC:MIC ([7]; Klebsiella oxytoca isolate 2919972): 2 | MBC:MIC ([7]; Klebsiella oxytoca isolate 2919983): 8 | MBC:MIC ([7]; Klebsiella pneumonia isolate 2921528): >8 | MBC:MIC ([7]; Klebsiella pneumoniae isolate 2921529): >8 | MBC:MIC ([7]; Morganella morganii isolate 2919931): >4 | MBC:MIC ([7]; Morganella morganii isolate 2919935): >4 | MBC:MIC ([7]; Morganella morganii isolate 2919945): >2 | MBC:MIC ([7]; Proteus vulgaris isolate 2919822): >1 | MBC:MIC ([7]; Proteus vulgaris isolate 2919827): >2 | MBC:MIC ([7]; Proteus vulgaris isolate 2919835): >4 | MBC:MIC ([7]; Proteus vulgaris isolate 2919836): 4 | MBC:MIC ([7]; Salmonella species isolate 2919986): 4 | MBC:MIC ([7]; Salmonella species isolate 2919990): 4 | MBC:MIC ([7]; Salmonella species isolate 2920006): 4 | MBC:MIC ([7]; Salmonella species isolate 2920008): 4 | MBC:MIC ([7]; Serratia marcescens isolate 2920092): 4 | MBC:MIC ([7]; Serratia marcescens isolate 2920094): >4 | MBC:MIC ([7]; Serratia marcescens isolate 2920100): 2 | MBC:MIC ([7]; Serratia marcescens isolate 2920109): 4 | MBC:MIC ([7]; Shigella species isolate 2919892): 4 | MBC:MIC ([7]; Shigella species isolate 2919894): 16 | MBC:MIC ([7]; Shigella species isolate 2920018): 2 | MBC:MIC ([7]; Shigella species isolate 2920026): 32 | MBC:MIC ([7]; Shigella species isolate 2920028): 8 | MBC:MIC ([7]; Staphylococcus aureus isolate 2919648): >16 | MBC:MIC ([7]; Staphylococcus aureus isolate 2919649): >16 | MBC:MIC ([7]; Staphylococcus aureus isolate 2919650): >16 | MBC:MIC ([7]; Stenotrophomonas maltophilia isolate 2920035): >8 | MBC:MIC ([7]; Stenotrophomonas maltophilia isolate 2920051): 8 | MBC:MIC ([7]; Streptococcus anginosus isolate 2919722): 8 | MBC:MIC ([7]; Streptococcus anginosus isolate 2919742): 16 | MBC:MIC ([7]; Streptococcus anginosus isolate 2919797): 8 | MBC:MIC ([7]; Streptococcus intermedius isolate 2919756): 16 | MBC:MIC ([7]; Streptococcus intermedius isolate 2919759): 64 | MBC:MIC ([7]; Streptococcus intermedius isolate 2919784): 16 | MBC:MIC ([7]; Streptococcus intermedius isolate 2919819): 4 | MBC:MIC ([7]; Streptococcus mitis isolate 2919763): 4 | MBC:MIC ([7]; Streptococcus mitis isolate 2919781): 1 | MBC:MIC ([7]; Streptococcus mitis isolate 2919798): 1 | MBC:MIC ([7]; Streptococcus mitis isolate 2919803): 8 | MBC:MIC ([7]; Streptococcus sanguis isolate 2919749): 4 | MBC:MIC ([7]; Streptococcus sanguis isolate 2919752): 2 | MBC:MIC ([7]; Streptococcus sanguis isolate 2919758): 16 | responders at 3 mg/kg ([8]; iv, read-out: Percent survival at 48 hours, IV (3 mg/kg)): 100% | responders at 30 mg/kg ([8]; po, read-out: Percent survival at 48 hours, PO (30 mg/kg)): 83% | log10 reduction in CFU versus the 48 hour untreated control [9]: 6.14+/−0.66 log10 | AUC(0-inf) [10, 13]: 9310 ng·h/mL | AUC(0-t) [10, 13]: 4850 ng·h/mL | clearance [10, 13]: 1.86 mL/min/kg | half-life [10, 13]: 23.3 h | Vd ([10]; cynomolgus monkey, plasma, IV 1 mg/kg, average of 3, read-out: Vdss): 3.4 L/kg | bioavailability ([10]; cynomolgus monkey, plasma, PO 10 mg/kg vs IV 1 mg/kg): 33.7% | AUC(0-inf) [10, 14]: 35400 ng·h/mL | AUC(0-t) [10, 14]: 16300 ng·h/mL | Cmax [10, 14]: 1260 ng/mL | Tmax [10, 14]: 4 h | half-life [10, 14]: 24.8 h | Co ([10]; IV 1 mg/kg, average of 3): 3170 ng/mL | MIC EC969 TetM [11]: 1 | MICs, fold higher against tetracycline resistant isolates relative to tetracycline susceptible isolates [12]: 2-4 fold | MIC50 [12, 15]: 0.25 µg/mL (≈ 0.472 µM) | MIC90 [12, 15]: 0.5 µg/mL (≈ 0.944 µM) | MIC50 [12, 16]: 0.12 µg/mL (≈ 0.227 µM) | MIC90 [12, 16]: 0.12 µg/mL (≈ 0.227 µM) | MIC50 ([12]; F. faecalis, TET NS, N=71): 0.5 µg/mL (≈ 0.944 µM) | MIC90 ([12]; F. faecalis, TET NS, N=71): 1 µg/mL (≈ 1.89 µM) | MIC50 ([12]; F. faecalis, TET S, N=30): 0.12 µg/mL (≈ 0.227 µM) | MIC90 ([12]; F. faecalis, TET S, N=30): 0.25 µg/mL (≈ 0.472 µM) | MIC50 [12, 17]: 0.5 µg/mL (≈ 0.944 µM) | MIC90 [12, 17]: 0.5 µg/mL (≈ 0.944 µM) | MIC50 [12, 18]: 0.12 µg/mL (≈ 0.227 µM) | MIC90 [12, 18]: 0.12 µg/mL (≈ 0.227 µM) | MIC50 [12, 19]: 0.12 µg/mL (≈ 0.227 µM) | MIC90 [12, 19]: 0.12 µg/mL (≈ 0.227 µM) | MIC50 [12, 20]: 0.06 µg/mL (≈ 0.113 µM) | MIC90 [12, 20]: 0.12 µg/mL (≈ 0.227 µM) | MIC50 ([12]; Streptococcus pyogenes, S. pyogenes, TET NS, N=6): 0.25 µg/mL (≈ 0.472 µM) | MIC50 [12, 21]: 0.12 µg/mL (≈ 0.227 µM) | MIC90 [12, 21]: 0.12 µg/mL (≈ 0.227 µM)

— patent US20170107179A1 (Tetraphase Pharmaceuticals, Inc., priority 2010, published 2017)
